Results: article PMC4988470, “Identification of the putative binding pocket of valerenic acid on GABAA receptors using docking studies and site‐directed mutagenesis” (British Journal of Pharmacology, 2015)

How the values were obtained:
[1] = biological target: α1I227Aβ3γ2S GABAA receptor (Rattus norvegicus, UniProt P62813+P63079, I254A); experiment: I GABA enhancement by VA, two-microelectrode voltage clamp in Xenopus oocytes; format: cell-based
Text: (§1) […]. […] Concentration‐response curves were generated, and the data were fitted by non‐linear regression analysis using ORIGIN software (OriginLab Corporation, Northampton, MA, USA). Data were fitted to the Hill equation: y=min+max−min*x^n/k^nH+x^nH k corresponds to the EC50 value; x‐values are logs of concentration, and n H is the Hill coefficient. Each data point represents the mean ± SEM from ≥3 oocytes and two oocyte batches.
(§2) Follicle membranes covering oocytes were enzymatically digested with 2 mg·mL^−1 collagenase (type 1A). Mutations β3T262A, β3T262S, β3N265S, β3T266A, β3R269A, β3M286A, β3M286W and β3F289S in the β3‐subunit and α1I227A, α1L231A, α1M235A, α1M235W and α1L268A in the α1 subunit were introduced by site‐directed mutagenesis using the QuikChange mutagenesis kit (Agilent Technologies, Vienna, Austria). The coding regions of plasmids were sequenced before experimental use. After cDNA linearization, capped cRNA transcripts were produced using the mMESSAGE mMACHINE® T7 transcription kit (Life Technologies). Capped transcripts were polyadenylated using yeast poly(A)polymerase, diluted in nuclease‐free water and stored before injection at −80°C.
(§3) One day after isolation, the oocytes were injected with about 10–50 nL of nuclease‐free water containing the different rat cRNAs (100–2000 ng·μL^−1 per subunit). For expression of wild‐type α1β3γ2S and mutant receptors, cRNAs were mixed in a ratio of 1:1:10 (Boileau et al., 2002). Electrophysiological experiments were performed using the two‐microelectrode voltage clamp technique at a holding potential of −70 mV making use of a TURBO TEC 01C amplifier (NPI Electronic, Tamm, Germany) and an Axon Digidata 1322A interface (Molecular Devices, Sunnyvale, CA, USA). Data acquisition was carried out using PCLAMP v.9.2 (Molecular Devices, Sunnyvale, CA). The bath solution contained 90 mM NaCl, 1 mM KCl, 1 mM MgCl2, 1 mM CaCl2 and 5 mM HEPES (adjusted to pH 7.4 using 1 M NaOH). Microelectrodes were filled with 2 M KCl and had resistances between 1 and 3 MΩ (Khom et al., 2006).
(§4) Drug or control solutions were applied by means of a TECAN Miniprep 60 permitting automation of the experiments. […] […]. Oocytes with maximal current amplitudes >5 μA were discarded to exclude voltage‐clamp errors (Khom et al., 2006).

[2] = biological target: α1L231Aβ3γ2S GABAA receptor (Rattus norvegicus, UniProt P62813+P63079, L258A); experiment: as above; format: cell-based
Text: as §1, §2, §3, §4

[3] = biological target: α1L268Aβ3γ2S GABAA receptor (Rattus norvegicus, UniProt P62813+P63079, L295A); experiment: as above; format: cell-based
Text: as §1, §2, §3, §4

[4] = biological target: α1M235Aβ3γ2S GABAA receptor (Rattus norvegicus, UniProt P62813+P63079, M262A); experiment: as above; format: cell-based
Text: as §1, §2, §3, §4

[5] = biological target: α1M235Wβ3γ2S GABAA receptor (Rattus norvegicus, UniProt P62813+P63079, M262W); experiment: as above; format: cell-based
Text: as §1, §2, §3, §4

[6] = biological target: α1β3F289Sγ2S GABAA receptor (Rattus norvegicus, UniProt P62813+P63079, F314S); experiment: as above; format: cell-based
Text: as §1, §2, §3, §4

[7] = biological target: α1β3M286Aγ2S GABAA receptor (Rattus norvegicus, UniProt P62813+P63079, M311A); experiment: as above; format: cell-based
Sequence of α1β3M286Aγ2S GABAA receptor (P62813 28-455): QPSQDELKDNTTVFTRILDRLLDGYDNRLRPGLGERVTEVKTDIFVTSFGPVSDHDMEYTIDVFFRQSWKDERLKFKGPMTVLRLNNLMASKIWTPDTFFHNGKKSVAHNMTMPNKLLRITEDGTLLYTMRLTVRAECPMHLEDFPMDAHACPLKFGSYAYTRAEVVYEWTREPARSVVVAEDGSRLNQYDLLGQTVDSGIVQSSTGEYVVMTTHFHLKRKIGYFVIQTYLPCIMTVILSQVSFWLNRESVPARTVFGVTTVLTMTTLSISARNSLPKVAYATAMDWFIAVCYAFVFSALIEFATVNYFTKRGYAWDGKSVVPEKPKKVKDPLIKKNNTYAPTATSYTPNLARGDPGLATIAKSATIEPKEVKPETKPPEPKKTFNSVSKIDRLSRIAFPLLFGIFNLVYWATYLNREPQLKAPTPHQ
Sequence of α1β3M286Aγ2S GABAA receptor (P63079 26-473 M311A): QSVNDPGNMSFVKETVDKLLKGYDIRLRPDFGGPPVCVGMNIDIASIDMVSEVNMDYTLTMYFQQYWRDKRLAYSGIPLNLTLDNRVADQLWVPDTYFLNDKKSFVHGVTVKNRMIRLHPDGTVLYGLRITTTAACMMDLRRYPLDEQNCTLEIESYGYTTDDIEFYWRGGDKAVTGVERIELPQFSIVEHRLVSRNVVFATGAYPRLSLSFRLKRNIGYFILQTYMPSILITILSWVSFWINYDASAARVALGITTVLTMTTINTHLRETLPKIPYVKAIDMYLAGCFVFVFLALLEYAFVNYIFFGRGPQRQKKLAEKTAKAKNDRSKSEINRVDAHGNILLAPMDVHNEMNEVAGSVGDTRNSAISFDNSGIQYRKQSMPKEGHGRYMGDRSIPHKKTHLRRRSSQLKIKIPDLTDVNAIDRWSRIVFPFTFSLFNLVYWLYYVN
Sequence of α1β3M286Aγ2S GABAA receptor (P18508 39-466 partner): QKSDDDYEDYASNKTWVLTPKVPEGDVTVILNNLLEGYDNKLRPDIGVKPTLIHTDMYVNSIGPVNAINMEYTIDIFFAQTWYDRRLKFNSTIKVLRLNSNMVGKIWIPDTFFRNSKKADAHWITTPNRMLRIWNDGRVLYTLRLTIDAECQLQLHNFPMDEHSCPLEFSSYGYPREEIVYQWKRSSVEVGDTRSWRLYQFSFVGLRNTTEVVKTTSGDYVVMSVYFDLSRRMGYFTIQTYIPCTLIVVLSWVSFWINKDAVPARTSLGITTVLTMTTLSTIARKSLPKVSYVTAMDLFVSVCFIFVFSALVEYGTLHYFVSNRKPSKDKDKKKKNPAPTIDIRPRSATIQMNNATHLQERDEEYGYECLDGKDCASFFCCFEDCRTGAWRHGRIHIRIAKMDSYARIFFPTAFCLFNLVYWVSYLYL
Text: as §1, §2, §3, §4

[8] = biological target: α1β3M286Wγ2S GABAA receptor (Rattus norvegicus, UniProt P62813+P63079, M311W); experiment: as above; format: cell-based
Text: as §1, §2, §3, §4

[9] = biological target: α1β3N265Sγ2S GABAA receptor (Rattus norvegicus, UniProt P62813+P63079, N290S); experiment: as above; format: cell-based
Text: as §1, §2, §3, §4

[10] = biological target: α1β3R269Aγ2S GABAA receptor (Rattus norvegicus, UniProt P62813+P63079, R294A); experiment: as above; format: cell-based
Sequence of α1β3R269Aγ2S GABAA receptor (P62813 28-455): as the sequence (P62813 28-455) above
Sequence of α1β3R269Aγ2S GABAA receptor (P63079 26-473 R294A): as the sequence (P63079 26-473 M311A) above, with R269A, A286M counted along it
Sequence of α1β3R269Aγ2S GABAA receptor (P18508 39-466 partner): as the sequence (P18508 39-466 partner) above
Text: as §1, §2, §3, §4

[11] = biological target: α1β3T262Aγ2S GABAA receptor (Rattus norvegicus, UniProt P62813+P63079, T287A); experiment: as above; format: cell-based
Text: as §1, §2, §3, §4

[12] = biological target: α1β3T262Sγ2S GABAA receptor (Rattus norvegicus, UniProt P62813+P63079, T287S); experiment: as above; format: cell-based
Text: as §1, §2, §3, §4

[13] = biological target: α1β3T266Aγ2S GABAA receptor (Rattus norvegicus, UniProt P62813+P63079, T291A); experiment: as above; format: cell-based
Sequence of α1β3T266Aγ2S GABAA receptor (P62813 28-455, stated change not applied): as the sequence (P62813 28-455) above
Sequence of α1β3T266Aγ2S GABAA receptor (P63079 26-473 T291A): as the sequence (P63079 26-473 M311A) above, with T266A, A286M counted along it
Sequence of α1β3T266Aγ2S GABAA receptor (P18508 39-466 partner): as the sequence (P18508 39-466 partner) above
Text: as §1, §2, §3, §4

α1β3γ2S GABAA receptor = α1β3γ2S GABAA receptor (Rattus norvegicus, UniProt P62813+P63079); experiment: as above; format: cell-based
Text: as §1, §2, §3, §4

GABAA receptors = tested on: GABAA receptors; parameters: method as in Khom et al., 2007; conditions: high concentrations; ref Khom et al., 2007; cited from earlier work
β1‐containing channels = tested on: β1‐containing channels; parameters: method as in Khom et al., 2007; conditions: ref Khom et al., 2007; cited from earlier work
[14] = read-out: Emax of I GABA enhancement

## CC1=C2[C@H](/C=C(\C)C(=O)O)CC[C@@H](C)[C@H]2CC1 [VA, valerenic acid]
[1]
  EC50: 40.8 ± 8.4 µM
[1]; [14]
  Emax: 776 ± 60%
[1]; α1I227Aβ3γ2S, GABA EC3–7, mean ± SEM
  n H (Hill coefficient, I GABA enhancement): 1.13 ± 0.08
[2]
  EC50: 18.8 ± 4.4 µM
[2]; [14]
  Emax: 703 ± 82%
[2]; α1L231Aβ3γ2S, GABA EC3–7, mean ± SEM
  n H (Hill coefficient, I GABA enhancement): 1.37 ± 0.18
[3]
  EC50: 19.9 ± 5.6 µM
[3]; [14]
  Emax: 582 ± 80%
[3]; α1L268Aβ3γ2S, GABA EC3–7, mean ± SEM
  n H (Hill coefficient, I GABA enhancement): 1.06 ± 0.13
[4]
  EC50: 21.1 ± 2.8 µM
[4]; [14]
  Emax: 546 ± 28%
[4]; α1M235Aβ3γ2S, GABA EC3–7, mean ± SEM
  n H (Hill coefficient, I GABA enhancement): 1.19 ± 0.08
[5]
  EC50: 24.3 ± 7.7 µM
[5]; [14]
  Emax: 193 ± 16%
[5]; α1M235Wβ3γ2S, GABA EC3–7, mean ± SEM
  n H (Hill coefficient, I GABA enhancement): 1.37 ± 0.34
[6]
  EC50: 181 ± 21.6 µM
[6]; [14]
  Emax: 222 ± 12%
[6]; α1β3F289Sγ2S versus α1β3γ2S
  rightward shift of VA's potency versus wild type: ninefold
[6]; α1β3F289Sγ2S, GABA EC3–7, mean ± SEM
  n H (Hill coefficient, I GABA enhancement): 1.20 ± 0.07
[7]
  EC50: 60.1 ± 18.5 µM
[7]; [14]
  Emax: 283 ± 52%
[7]; α1β3M286Aγ2S, GABA EC3–7, mean ± SEM
  n H (Hill coefficient, I GABA enhancement): 1.47 ± 0.21
[8]; [14]
  Emax: 67 ± 35%
[8]; α1β3M286Wγ2S, GABA EC3–7
  modulatory effects on I GABA (in words): did not display any significant modulatory effects
[9]
  EC50: 143 ± 67.5 µM
[9]; [14]
  Emax: 134 ± 32%
[9]; α1β3N265Sγ2S versus α1β3γ2S
  reduction of efficacy of IGABA enhancement versus wild type: approximately fivefold reduced
  reduction of potency of IGABA enhancement versus wild type: sevenfold reduction
[9]; α1β3N265Sγ2S, GABA EC3–7, mean ± SEM
  n H (Hill coefficient, I GABA enhancement): 1.33 ± 0.39
[10]
  EC50: 84.1 ± 14.7 µM
[10]; [14]
  Emax: 259 ± 22%
[10]; α1β3R269Aγ2S, GABA EC3–7, mean ± SEM
  n H (Hill coefficient, I GABA enhancement): 1.63 ± 0.19
[10]; β3R269 mutated to alanine versus wild type
  reduction of efficacy of I GABA enhancement versus wild type: approximately 50%
[11]
  EC50: 2.5 ± 0.8 µM
[11]; [14]
  Emax: 573 ± 96%
[11]; α1β3T262Aγ2S, GABA EC3–7, mean ± SEM
  n H (Hill coefficient, I GABA enhancement): 1.00 ± 0.16
[12]
  EC50: 3.4 ± 0.7 µM
[12]; [14]
  Emax: 578 ± 42%
[12]; α1β3T262Sγ2S, GABA EC3–7, mean ± SEM
  n H (Hill coefficient, I GABA enhancement): 0.85 ± 0.15
[13]
  EC50: 7.5 ± 1.5 µM
[13]; [14]
  Emax: 666 ± 55%
[13]; α1β3T266Aγ2S, GABA EC3–7, mean ± SEM
  n H (Hill coefficient, I GABA enhancement): 1.26 ± 0.1
α1β3γ2S GABAA receptor
  EC50: 20.2 ± 5.2 µM
α1β3γ2S GABAA receptor; [14]
  Emax: 632 ± 88%
α1β3γ2S GABAA receptor; α1β3γ2S, GABA EC3–7, mean ± SEM
  n H (Hill coefficient, I GABA enhancement): 1.50 ± 0.29
GABAA receptors
  concentration at which VA directly activates GABAA receptors: ≥ 30 µM
  concentration at which VA inhibits GABAA receptors: ≥ 100 µM
β1‐containing channels
  effects on β1‐containing channels: negligible effects
